# Results reported in patent publication US11261192B2, “Substituted 1,2-dihydro-3H-pyrazolo[3,4-D]pyrimidin-3-ones” (Recurium IP Holdings, LLC, priority 2018, dated 2022).
# Target: Wee1 kinase (Homo sapiens, UniProt P30291)
# Assay: Wee1 Binding Assay (FRET)
# Conditions: not given
# Description: Wee 1 kinase was determined by using Fluorescence Resonance Energy Transfer (FRET) assay. […] The plate was shaken for 30 seconds, incubated for 60 min at RT, and recorded on fluorescence plate reader.
# Chain of Wee1 kinase (P30291 whole entry): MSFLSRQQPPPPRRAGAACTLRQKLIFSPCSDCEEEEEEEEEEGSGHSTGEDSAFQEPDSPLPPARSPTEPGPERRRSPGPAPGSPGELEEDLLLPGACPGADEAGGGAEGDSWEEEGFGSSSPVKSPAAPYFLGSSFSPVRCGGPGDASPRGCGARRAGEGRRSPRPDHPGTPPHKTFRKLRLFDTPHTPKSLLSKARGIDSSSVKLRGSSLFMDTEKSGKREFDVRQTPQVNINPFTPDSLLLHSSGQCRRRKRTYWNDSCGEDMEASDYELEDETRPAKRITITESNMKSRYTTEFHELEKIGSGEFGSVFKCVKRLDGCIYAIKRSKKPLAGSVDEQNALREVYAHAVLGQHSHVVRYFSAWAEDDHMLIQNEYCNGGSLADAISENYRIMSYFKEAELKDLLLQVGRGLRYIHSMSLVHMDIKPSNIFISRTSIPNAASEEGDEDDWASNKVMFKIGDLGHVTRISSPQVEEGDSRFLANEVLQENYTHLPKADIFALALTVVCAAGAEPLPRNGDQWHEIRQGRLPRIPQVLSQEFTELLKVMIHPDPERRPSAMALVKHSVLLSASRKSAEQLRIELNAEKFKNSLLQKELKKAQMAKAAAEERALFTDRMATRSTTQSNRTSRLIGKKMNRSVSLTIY
row,SMILES,IC50
1,"C=CCn1c(=O)c2cnc(Nc3ccc(N4CCN(C)CC4)cc3)nc2n1-c1ccc2c(n1)[C@@H](O)CC2 (single isomer, unassigned) [Example 1A]",< 10 nM
2,"C=CCn1c(=O)c2cnc(Nc3ccc(N4CCN(C)CC4)cc3)nc2n1-c1ccc2c(n1)[C@H](O)CC2 (single isomer, unassigned) [Example 1B]",< 10 nM
3,"C=CCn1c(=O)c2cnc(Nc3ccc(N4CCN(C)CC4)cc3)nc2n1-c1ccc2c(n1)[C@@](C)(O)CC2 (single isomer, unassigned) [Example 2A]",< 10 nM
4,"C=CCn1c(=O)c2cnc(Nc3ccc(N4CCN(C)CC4)cc3)nc2n1-c1ccc2c(n1)[C@](C)(O)CC2 (single isomer, unassigned) [Example 2B]",< 10 nM
5,"C=CCn1c(=O)c2cnc(Nc3ccc(N4CCN(C)CC4)cc3)nc2n1-c1ccc2c(n1)[C@](O)(C(F)(F)F)CC2 (single isomer, unassigned) [Example 3A]",< 10 nM
6,"C=CCn1c(=O)c2cnc(Nc3ccc(N4CCN(C)CC4)cc3)nc2n1-c1ccc2c(n1)[C@@](O)(C(F)(F)F)CC2 (single isomer, unassigned) [Example 3B]",< 10 nM
7,"C=CCn1c(=O)c2cnc(Nc3ccc(N4CCN(C)CC4)cc3)nc2n1-c1ccc2c(n1)[C@@](C)(O)CO2 (single isomer, unassigned) [Example 4A]",< 10 nM
8,"C=CCn1c(=O)c2cnc(Nc3ccc(N4CCN(C)CC4)cc3)nc2n1-c1ccc2c(n1)[C@](C)(O)CO2 (single isomer, unassigned) [Example 4B]",< 10 nM
9,"C=CCn1c(=O)c2cnc(Nc3ccc(N4CCN(C)CC4)cc3)nc2n1-c1ccc2c(n1)[C@](O)(CC)CC2 (single isomer, unassigned) [Example 9A]",< 10 nM

# Same assay, conditions: FRET, Wee1 kinase 2 nM, tracer 178 50 nM, 60 min at RT; read-out: Wee1 enzymatic IC50
row,SMILES,IC50
1,"C=CCn1c(=O)c2cnc(Nc3ccc(N4CCN(C)CC4)cc3)nc2n1-c1ccc2c(n1)C(=O)NC2 [Example 34, 2-allyl-6-((4-(4-methylpiperazin-1-yl)phenyl)amino)-1-(7-oxo-6,7-dihydro-5H-pyrrolo[3,4-b]pyridin-2-yl)-1,2-dihydro-3H-pyrazolo[3,4-d]pyrimidin-3-one]",< 10 nM

# Test system: H23 cells
# Assay: H23 Cellular Proliferation Assay (CellTiter-Glo)
# Format: cell-based
# Conditions: Homo sapiens, NCI-H23, 96 h, 4 days, read-out: H23 CTG IC50
# Description: H23 Cellular Proliferation Assay
# Cells were treated with compounds diluted in DMSO and a 9 point 5-fold serial dilutions. Plates were placed in 37° C., 5% CO2 for to incubate for 4 days. Before they were developed by adding 100 μL of CellTiter-Glo reagent (Promega) to the assay plate, plates were shaken briefly for 2 mins and allowed to incubate at rt for 10 mins. The plates are read with a M5e plate reader according to CellTiter-Glo protocol. The GraphPad Prism software is used to get IC50 values.
row,SMILES,IC50
1,"C=CCn1c(=O)c2cnc(Nc3ccc(N4CCN(C)CC4)cc3)nc2n1-c1ccc2c(n1)[C@@H](O)CC2 (single isomer, unassigned) [Example 1A]",> 1000 nM
2,"C=CCn1c(=O)c2cnc(Nc3ccc(N4CCN(C)CC4)cc3)nc2n1-c1ccc2c(n1)[C@@](C)(O)CC2 (single isomer, unassigned) [Example 2A]",> 1000 nM
3,"C=CCn1c(=O)c2cnc(Nc3ccc(N4CCN(C)CC4)cc3)nc2n1-c1ccc2c(n1)[C@](C)(O)CC2 (single isomer, unassigned) [Example 2B]",100 to 1000 nM
4,"C=CCn1c(=O)c2cnc(Nc3ccc(N4CCN(C)CC4)cc3)nc2n1-c1ccc2c(n1)[C@](O)(C(F)(F)F)CC2 (single isomer, unassigned) [Example 3A]",> 1000 nM
5,"C=CCn1c(=O)c2cnc(Nc3ccc(N4CCN(C)CC4)cc3)nc2n1-c1ccc2c(n1)[C@@](O)(C(F)(F)F)CC2 (single isomer, unassigned) [Example 3B]",100 to 1000 nM
6,"C=CCn1c(=O)c2cnc(Nc3ccc(N4CCN(C)CC4)cc3)nc2n1-c1ccc2c(n1)[C@@](C)(O)CO2 (single isomer, unassigned) [Example 4A]",> 1000 nM
7,"C=CCn1c(=O)c2cnc(Nc3ccc(N4CCN(C)CC4)cc3)nc2n1-c1ccc2c(n1)[C@](C)(O)CO2 (single isomer, unassigned) [Example 4B]",> 1000 nM
8,"C=CCn1c(=O)c2cnc(Nc3ccc(N4CCN(C)CC4)cc3)nc2n1-c1ccc2c(c1)[C@](O)(CC)CO2 (single isomer, unassigned) [Example 5A]",> 1000 nM
9,"C=CCn1c(=O)c2cnc(Nc3ccc(N4CCN(C)CC4)cc3)nc2n1-c1ccc2c(c1)[C@@](O)(CC)CO2 (single isomer, unassigned) [Example 5B]",100 to 1000 nM
10,"C=CCn1c(=O)c2cnc(Nc3ccc(N4CCN(C)CC4)cc3)nc2n1-c1ccc2c(n1)[C@](O)(C(F)(F)F)CO2 (single isomer, unassigned) [Example 6A]",> 1000 nM
11,"C=CCn1c(=O)c2cnc(Nc3ccc(N4CCN(C)CC4)cc3)nc2n1-c1ccc2c(n1)[C@@](O)(C(F)(F)F)CO2 (single isomer, unassigned) [Example 6B]",100 to 1000 nM
12,"C=CCn1c(=O)c2cnc(Nc3ccc(N4CCN(C)CC4)cc3)nc2n1-c1ccc2c(n1)[C@](O)(CC)CC2 (single isomer, unassigned) [Example 9A]",100 to 1000 nM
13,"C=CCn1c(=O)c2cnc(Nc3ccc(N4CCNCC4)c(C)c3)nc2n1-c1ccc2c(n1)[C@](O)(CC)CC2 (single isomer, unassigned) [Example 13A]",100 to 1000 nM
14,"C=CCn1c(=O)c2cnc(Nc3ccc(N4CCNCC4)c(C)c3)nc2n1-c1ccc2c(n1)[C@@](O)(CC)CC2 (single isomer, unassigned) [Example 13B]",< 100 nM
15,"C=CCn1c(=O)c2cnc(Nc3ccc(N4CCN(C)CC4)cc3)nc2n1-c1ccc2c(n1)[C@](O)(C1CC1)CC2 (single isomer, unassigned) [Example 16A]",100 to 1000 nM
16,"C=CCn1c(=O)c2cnc(Nc3ccc(N4CCN(C)[C@@H](C)C4)cc3)nc2n1-c1ccc2c(n1)[C@@](C)(O)CC2 (single isomer, unassigned) [Example 17A]",100 to 1000 nM
17,"C=CCn1c(=O)c2cnc(Nc3ccc(N4CCN(C)[C@@H](C)C4)cc3)nc2n1-c1ccc2c(n1)[C@](C)(O)CC2 (single isomer, unassigned) [Example 17B]",100 to 1000 nM
18,"C=CCn1c(=O)c2cnc(Nc3ccc(N4CCN(C)[C@H](C)C4)cc3)nc2n1-c1ccc2c(n1)[C@@](C)(O)CC2 (single isomer, unassigned) [Example 18A]",100 to 1000 nM
19,"C=CCn1c(=O)c2cnc(Nc3ccc(N4CCN(C)[C@H](C)C4)cc3)nc2n1-c1ccc2c(n1)[C@](C)(O)CC2 (single isomer, unassigned) [Example 18B]",100 to 1000 nM
20,"C=CCn1c(=O)c2cnc(Nc3ccc(N4CCN(C)C[C@@H]4C)cc3)nc2n1-c1ccc2c(n1)[C@@](C)(O)CC2 (single isomer, unassigned) [Example 19A]",> 1000 nM
21,"C=CCn1c(=O)c2cnc(Nc3ccc(N4CCN(C)C[C@@H]4C)cc3)nc2n1-c1ccc2c(n1)[C@](C)(O)CC2 (single isomer, unassigned) [Example 19B]",100 to 1000 nM
22,"C=CCn1c(=O)c2cnc(Nc3ccc(N4CCN(C)C[C@H]4C)cc3)nc2n1-c1ccc2c(n1)[C@@](C)(O)CC2 (single isomer, unassigned) [Example 20A]",> 1000 nM

row,SMILES,IC50
1,"C=CCn1c(=O)c2cnc(Nc3ccc(N4CCN(C)C[C@H]4C)cc3)nc2n1-c1ccc2c(n1)[C@](C)(O)CC2 (single isomer, unassigned) [Example 20B]",100 to 1000 nM
2,"C=CCn1c(=O)c2cnc(Nc3ccc(N4CCN(C)CC4)c(C)c3)nc2n1-c1ccc2c(c1)[C@@](C)(O)CC2 (single isomer, unassigned) [Example 23A]",100 to 1000 nM
3,"C=CCn1c(=O)c2cnc(Nc3ccc(N4CCN(C)CC4)c(C)c3)nc2n1-c1ccc2c(c1)[C@](C)(O)CC2 (single isomer, unassigned) [Example 23B]",< 100 nM
4,"C=CCn1c(=O)c2cnc(Nc3ccc(N4CCN(C)CC4)cc3)nc2n1-c1cc(F)c2c(c1)[C@@](C)(O)CC2 (single isomer, unassigned) [Example 24A]",100 to 1000 nM
5,"C=CCn1c(=O)c2cnc(Nc3ccc(N4CCN(C)CC4)cc3)nc2n1-c1cc(F)c2c(c1)[C@](C)(O)CC2 (single isomer, unassigned) [Example 24B]",100 to 1000 nM
6,"C=CCn1c(=O)c2cnc(Nc3ccc(N4CCNCC4)cc3)nc2n1-c1ccc2c(n1)[C@@](C)(O)CCC2 (single isomer, unassigned) [Example 28A]",100 to 1000 nM
7,"C=CCn1c(=O)c2cnc(Nc3ccc(N4CCNCC4)cc3)nc2n1-c1ccc2c(n1)[C@](C)(O)CCC2 (single isomer, unassigned) [Example 28B]",100 to 1000 nM
8,"C=CCn1c(=O)c2cnc(Nc3ccc4c(c3)CNCC43CC3)nc2n1-c1ccc2c(n1)[C@@](C)(O)CCC2 (single isomer, unassigned) [Example 31A]",< 100 nM
9,"C=CCn1c(=O)c2cnc(Nc3ccc4c(c3)CNCC43CC3)nc2n1-c1ccc2c(n1)[C@](C)(O)CCC2 (single isomer, unassigned) [Example 31B]",< 100 nM
10,"C=CCn1c(=O)c2cnc(Nc3ccc(N4CCN(C)CC4)cc3)nc2n1-c1cc2c(cn1)CC[C@]2(C)O (single isomer, unassigned) [Example 37A]",> 1000 nM
11,"C=CCn1c(=O)c2cnc(Nc3ccc(N4CCN(C)CC4)cc3)nc2n1-c1cc2c(cn1)CC[C@@]2(C)O (single isomer, unassigned) [Example 37B]",> 1000 nM
12,"C=CCn1c(=O)c2cnc(Nc3ccc(N4CCN(C)CC4)cc3)nc2n1-c1ccc2c(n1)[C@](O)(C(C)(F)F)CC2 (single isomer, unassigned) [Example 38A]",> 1000 nM
13,"C=CCn1c(=O)c2cnc(Nc3ccc(N4CCN(C)CC4)cc3)nc2n1-c1ccc2c(n1)[C@@](O)(C(C)(F)F)CC2 (single isomer, unassigned) [Example 38B]",100 to 1000 nM
14,"C=CCn1c(=O)c2cnc(Nc3ccc4c(ccn4C4CCN(C)CC4)c3)nc2n1-c1ccc2c(n1)[C@](O)(CC)CC2 (single isomer, unassigned) [Example 39A]",100 to 1000 nM
15,"C=CCn1c(=O)c2cnc(Nc3ccc4c(ccn4C4CCN(C)CC4)c3)nc2n1-c1ccc2c(n1)[C@@](O)(CC)CC2 (single isomer, unassigned) [Example 39B]",100 to 1000 nM
16,"C=CCn1c(=O)c2cnc(Nc3ccc(C4=CCN(C)CC4)c(C)c3)nc2n1-c1ccc2c(n1)[C@](O)(CC)CC2 (single isomer, unassigned) [Example 40A]",100 to 1000 nM
17,"C=CCn1c(=O)c2cnc(Nc3ccc(C4=CCN(C)CC4)c(C)c3)nc2n1-c1ccc2c(n1)[C@@](O)(CC)CC2 (single isomer, unassigned) [Example 40B]",< 100 nM
18,"C=CCn1c(=O)c2cnc(Nc3ccc(N4CCN(C)CC4)cc3)nc2n1-c1ccc2c(n1)[C@@](C)(NC(C)=O)CCC2 (single isomer, unassigned) [Example 41A]",> 1000 nM
19,"C=CCn1c(=O)c2cnc(Nc3ccc(N4CCN(C)CC4)cc3)nc2n1-c1ccc2c(n1)[C@](C)(NC(C)=O)CCC2 (single isomer, unassigned) [Example 41B]",> 1000 nM
20,"C=CCn1c(=O)c2cnc(Nc3ccc(N4CCN(C)CC4)cc3)nc2n1-c1cccc(C(C)(C)O)n1 [AZD1775, 2-allyl-1-(6-(2-hydroxypropan-2-yl)pyridin-2-yl)-6-(4-(4-methylpiperazin-1-yl)phenylamino)-1,2-dihydropyrazolo[3,4-d]pyrimidin-3-one, reference compound]",100 to 1000 nM
21,"C=CCn1c(=O)c2cnc(Nc3ccc(N4CCNCC4)cc3)nc2n1-c1ccc2c(n1)[C@@](O)(CC)CC2 [Example 14, (R)-2-allyl-1-(7-ethyl-7-hydroxy-6,7-dihydro-5H-cyclopenta[b]pyridin-2-yl)-6-((4-(piperazin-1-yl)phenyl)amino)-1,2-dihydro-3H-pyrazolo[3,4-d]pyrimidin-3-one]",100 to 1000 nM
